Results from ChEMBL document CHEMBL5523718, “Design, synthesis, molecular modeling, in vitro and in vivo biological evaluation of potent anthranilamide derivatives as dual P-glycoprotein and CYP3A4 inhibitors” (Eur J Med Chem, 2024).
pEC50, pIC50: −log10 of the molar value. ≈ marks a conversion by molar mass, not a printed value. Each block holds one compound with its values, some of them ahead of it.

Legend:
[1] = molecular target: T1, Broad substrate specificity ATP-binding cassette transporter ABCG2 (Homo sapiens, UniProt Q9UNQ0); experiment: Inhibition of BCRP (unknown origin) ATPase activity
T1 sequence (Q9UNQ0 whole entry): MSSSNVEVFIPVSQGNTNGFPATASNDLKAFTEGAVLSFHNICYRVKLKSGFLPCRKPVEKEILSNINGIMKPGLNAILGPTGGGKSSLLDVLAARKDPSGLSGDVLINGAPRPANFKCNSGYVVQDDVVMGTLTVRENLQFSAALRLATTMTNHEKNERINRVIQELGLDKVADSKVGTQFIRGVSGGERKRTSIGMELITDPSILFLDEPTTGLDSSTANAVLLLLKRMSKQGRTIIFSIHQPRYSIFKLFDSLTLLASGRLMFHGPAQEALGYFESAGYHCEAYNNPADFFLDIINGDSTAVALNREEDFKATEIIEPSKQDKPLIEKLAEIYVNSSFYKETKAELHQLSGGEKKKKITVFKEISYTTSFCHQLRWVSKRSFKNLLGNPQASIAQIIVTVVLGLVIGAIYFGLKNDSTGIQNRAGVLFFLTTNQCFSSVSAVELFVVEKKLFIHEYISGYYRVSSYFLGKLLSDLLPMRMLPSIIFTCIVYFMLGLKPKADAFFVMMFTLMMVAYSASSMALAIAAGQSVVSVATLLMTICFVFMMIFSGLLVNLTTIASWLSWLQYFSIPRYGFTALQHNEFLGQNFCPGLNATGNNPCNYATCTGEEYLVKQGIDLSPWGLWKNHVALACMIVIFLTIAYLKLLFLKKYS

[2] = Metabolic stability in monkey liver microsome assessed as intrinsic clearance; type: ADME, Macaca mulatta; settings: rhesus monkey, microsomes
[3] = Metabolic stability in mouse liver microsome assessed as intrinsic clearance; type: ADME; settings: microsomes
[4] = molecular target: T2, ATP-dependent translocase ABCB1 (Homo sapiens, UniProt P08183); experiment: Inhibition of P-gp in human MES-SA/Dx5 cells; type: cell-based
P-gp (ABCB1) [5] = molecular target: T3, P-gp (ABCB1) (Homo sapiens, UniProt P08183); experiment: Inhibition of P-gp in human Caco-2 cells at 0.01 uM in presence of paclitaxel relative to control; type: cell-based; settings: Caco-2, probe paclitaxel
[6] = Metabolic stability in monkey liver microsome assessed as half life; type: ADME, Macaca mulatta; settings: rhesus monkey, liver microsomes
[7] = Metabolic stability in mouse liver microsome assessed as half life; type: ADME; settings: liver microsomes
[8] = Metabolic stability in human liver microsome assessed as intrinsic clearance; type: ADME; settings: microsomes
[9] = molecular target: T2, ATP-dependent translocase ABCB1; experiment: Inhibition of P-gp (unknown origin) ATPase activity
P-gp (ABCB1) [10] = molecular target: T3, P-gp (ABCB1); experiment: Inhibition of P-gp in human Caco-2 cells at 0.1 uM in presence of paclitaxel relative to control; type: cell-based; settings: Caco-2, probe paclitaxel
[11] = Half life in CD-1 mouse at 10 mg/kg, po measured upto 8 hrs by LC-MS/MS analysis; type: ADME, organism-based; settings: in vivo
[12] = Equilibrium solubility of compound in PBS at pH 7.4; type: physicochemical; settings: PBS
[13] = Metabolic stability in rat liver microsome assessed as half life; type: ADME; settings: liver microsomes
[14] = Metabolic stability in rat liver microsome assessed as intrinsic clearance; type: ADME; settings: microsomes
[15] = Inhibition of MRP1 (unknown origin) ATPase activity; set-up: species or system Homo sapiens
[16] = molecular target: T2, ATP-dependent translocase ABCB1; experiment: Inhibition of P-gp in human Caco-2 cells in presence of paclitaxel; type: cell-based
MES-SA/Dx5 = experiment: Cytotoxicity against human MES-SA/Dx5 cells at 1.28 uM incubated for 3 days by MTT assay relative to control; type: functional; settings: time 3 day
P-gp (ABCB1) [17] = molecular target: T3, P-gp (ABCB1); experiment: Inhibition of P-gp in human Caco-2 cells at 1 uM in presence of paclitaxel relative to control; type: cell-based; settings: Caco-2, probe paclitaxel
P-gp (ABCB1) [18] = molecular target: T3, P-gp (ABCB1); experiment: Inhibition of P-gp in human Caco-2 cells at 10 uM in presence of paclitaxel relative to control; type: cell-based; settings: Caco-2, probe paclitaxel
[19] = Metabolic stability in human liver microsome assessed as half life; type: ADME; settings: liver microsomes
[20] = molecular target: ATP-binding cassette sub-family C member 2 (Homo sapiens, UniProt Q92887); experiment: Inhibition of MRP2 (unknown origin) ATPase activity
[21] = MRT in CD-1 mouse at 10 mg/kg, po measured upto 8 hrs by LC-MS/MS analysis; type: ADME, organism-based; settings: in vivo
P-gp (ABCB1) [22] = molecular target: T3, P-gp (ABCB1); experiment: Inhibition of P-gp in human Caco-2 cells at 5 uM in presence of paclitaxel relative to control; type: cell-based; settings: Caco-2, probe paclitaxel
[23] = AUC (0 to t) in Sprague-Dawley rat at 20 mg/kg, po measured upto 24 hrs by LC-MS/MS analysis; type: ADME, organism-based; settings: in vivo
[24] = Apparent permeability across basolateral to apical side in human Caco-2 cells assessed as drug recovery; type: ADME, cell-based; settings: read-out: Drug recovery
[25] = Apparent permeability of compound across apical to basolateral side in human Caco-2 cells; type: ADME, cell-based
[26] = Apparent permeability across apical to basolateral side in human Caco-2 cells assessed as drug recovery; type: ADME, cell-based; settings: read-out: Drug recovery
[27] = MRT in Sprague-Dawley rat at 20 mg/kg, po measured upto 24 hrs by LC-MS/MS analysis; type: ADME, organism-based; settings: in vivo
[28] = Apparent permeability of compound across basolateral to apical side in human Caco-2 cells; type: ADME, cell-based
[29] = Cmax in Sprague-Dawley rat at 20 mg/kg, po measured upto 24 hrs by LC-MS/MS analysis; type: ADME, organism-based; settings: in vivo
[30] = Tmax in Sprague-Dawley rat at 20 mg/kg, po measured upto 24 hrs by LC-MS/MS analysis; type: ADME, organism-based; settings: in vivo

T2 sequence (P08183 whole entry): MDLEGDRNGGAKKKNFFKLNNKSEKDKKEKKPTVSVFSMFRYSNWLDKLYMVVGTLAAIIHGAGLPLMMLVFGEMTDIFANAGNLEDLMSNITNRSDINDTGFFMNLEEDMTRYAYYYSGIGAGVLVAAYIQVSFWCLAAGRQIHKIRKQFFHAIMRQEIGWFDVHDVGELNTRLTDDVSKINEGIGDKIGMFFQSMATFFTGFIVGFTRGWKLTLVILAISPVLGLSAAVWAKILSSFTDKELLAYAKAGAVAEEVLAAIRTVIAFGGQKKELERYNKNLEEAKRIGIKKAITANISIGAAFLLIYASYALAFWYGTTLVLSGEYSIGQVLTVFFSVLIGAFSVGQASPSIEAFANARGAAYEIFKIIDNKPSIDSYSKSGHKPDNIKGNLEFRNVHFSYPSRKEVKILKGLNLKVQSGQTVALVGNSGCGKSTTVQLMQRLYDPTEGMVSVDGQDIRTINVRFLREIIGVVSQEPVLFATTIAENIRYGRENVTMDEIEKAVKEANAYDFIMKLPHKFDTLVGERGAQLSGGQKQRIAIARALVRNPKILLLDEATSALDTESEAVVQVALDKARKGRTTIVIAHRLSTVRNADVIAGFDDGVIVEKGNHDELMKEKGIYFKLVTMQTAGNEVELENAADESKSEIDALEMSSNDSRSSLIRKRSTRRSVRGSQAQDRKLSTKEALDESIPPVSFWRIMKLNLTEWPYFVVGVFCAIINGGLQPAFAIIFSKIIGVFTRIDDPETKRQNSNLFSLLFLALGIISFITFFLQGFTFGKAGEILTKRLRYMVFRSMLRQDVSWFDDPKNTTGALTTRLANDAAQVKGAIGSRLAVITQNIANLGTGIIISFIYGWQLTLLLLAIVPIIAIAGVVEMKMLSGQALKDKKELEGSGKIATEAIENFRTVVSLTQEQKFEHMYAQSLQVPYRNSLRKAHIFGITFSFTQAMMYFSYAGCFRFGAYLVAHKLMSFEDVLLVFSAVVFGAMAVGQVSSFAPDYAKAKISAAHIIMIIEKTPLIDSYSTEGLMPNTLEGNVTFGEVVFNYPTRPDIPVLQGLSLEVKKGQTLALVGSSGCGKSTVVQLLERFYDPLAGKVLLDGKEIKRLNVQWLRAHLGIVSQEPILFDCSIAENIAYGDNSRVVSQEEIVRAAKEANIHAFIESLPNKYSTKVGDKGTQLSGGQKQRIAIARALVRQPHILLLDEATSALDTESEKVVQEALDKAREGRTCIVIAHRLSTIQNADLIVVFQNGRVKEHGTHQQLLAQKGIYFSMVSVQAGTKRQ
T3 sequence (P08183 whole entry): as above
Sequence of ATP-binding cassette sub-family C member 2 (Q92887 whole entry): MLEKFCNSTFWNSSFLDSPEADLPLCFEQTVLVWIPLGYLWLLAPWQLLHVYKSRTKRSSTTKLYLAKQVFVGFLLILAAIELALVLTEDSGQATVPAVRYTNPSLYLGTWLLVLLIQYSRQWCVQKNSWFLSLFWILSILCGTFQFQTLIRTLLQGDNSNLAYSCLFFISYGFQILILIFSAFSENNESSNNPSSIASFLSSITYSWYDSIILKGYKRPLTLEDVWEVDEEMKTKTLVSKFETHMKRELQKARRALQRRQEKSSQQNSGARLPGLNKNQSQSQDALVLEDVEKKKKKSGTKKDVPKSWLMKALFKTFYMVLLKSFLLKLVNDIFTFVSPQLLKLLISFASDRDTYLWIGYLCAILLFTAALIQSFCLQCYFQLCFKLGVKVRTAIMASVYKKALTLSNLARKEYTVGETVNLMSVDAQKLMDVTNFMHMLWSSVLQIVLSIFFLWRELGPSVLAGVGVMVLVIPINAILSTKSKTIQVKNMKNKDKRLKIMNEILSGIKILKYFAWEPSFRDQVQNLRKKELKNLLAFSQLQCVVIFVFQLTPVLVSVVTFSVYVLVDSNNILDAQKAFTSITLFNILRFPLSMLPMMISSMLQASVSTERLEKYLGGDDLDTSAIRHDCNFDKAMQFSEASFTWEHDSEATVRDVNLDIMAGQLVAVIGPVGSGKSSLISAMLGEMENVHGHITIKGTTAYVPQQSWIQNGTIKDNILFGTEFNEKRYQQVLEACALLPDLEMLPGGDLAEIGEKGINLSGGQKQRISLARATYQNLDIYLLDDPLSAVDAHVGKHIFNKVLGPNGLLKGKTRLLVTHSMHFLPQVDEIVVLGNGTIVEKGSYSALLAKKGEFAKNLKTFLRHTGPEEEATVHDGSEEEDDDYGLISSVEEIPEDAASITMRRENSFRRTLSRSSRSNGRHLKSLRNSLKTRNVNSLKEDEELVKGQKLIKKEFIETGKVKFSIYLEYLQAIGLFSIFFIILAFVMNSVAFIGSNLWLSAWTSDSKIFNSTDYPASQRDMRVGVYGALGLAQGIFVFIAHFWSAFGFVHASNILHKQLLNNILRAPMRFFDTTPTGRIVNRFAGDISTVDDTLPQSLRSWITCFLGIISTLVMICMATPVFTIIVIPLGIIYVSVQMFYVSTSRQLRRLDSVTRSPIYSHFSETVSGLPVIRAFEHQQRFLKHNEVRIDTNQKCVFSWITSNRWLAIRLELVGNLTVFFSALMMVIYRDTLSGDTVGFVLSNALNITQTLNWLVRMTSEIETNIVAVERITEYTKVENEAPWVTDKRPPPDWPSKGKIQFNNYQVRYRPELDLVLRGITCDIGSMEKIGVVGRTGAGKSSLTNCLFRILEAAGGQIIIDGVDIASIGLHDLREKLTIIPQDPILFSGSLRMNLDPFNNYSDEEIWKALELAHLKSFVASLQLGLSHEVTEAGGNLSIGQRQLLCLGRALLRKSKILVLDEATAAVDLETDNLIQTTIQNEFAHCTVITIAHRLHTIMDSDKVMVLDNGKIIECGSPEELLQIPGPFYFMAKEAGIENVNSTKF

pIC50 [1]: 6.63 | CLH [2]: 39 µL/min/mg | CLH [3]: < 23 µL/min/mg | pEC50 [4]: 7.46 | inhibition at 0.01 µM (P-gp (ABCB1) [5]): 0% | half-life [6]: 0.583 h | half-life [7]: > 1 h | CLH [8]: < 23 µL/min/mg | pIC50 [9]: 7.46 | inhibition at 0.1 µM (P-gp (ABCB1) [10]): 77% | half-life [11]: 1.11 h | solubility thermodynamic [12]: 0.44 µM (≈ 0.285 µg/mL) | half-life [13]: > 1 h | CLH [14]: < 23 µL/min/mg | pIC50 [15]: < 5.00 | pIC50 [16]: 7.28 | inhibition at 1 µM (P-gp (ABCB1) [17]): 92% | inhibition at 10 µM (P-gp (ABCB1) [18]): 96% | half-life [19]: > 1 h | pIC50 [20]: < 5.00 | MRT [21]: 1.26 h | inhibition at 5 µM (P-gp (ABCB1) [22]): 96%
SMILES: COc1cc2c(cc1OC)CN(CCc1ccc(NC(=O)c3cc(OC)c(OC)cc3NC(=O)c3cnc4ccccc4c3)cc1)CC2
Activity (MES-SA/Dx5): 5%

AUCt [23]: 95.9 ng·h/mL | recovery [24]: 66% | Papp A→B [25]: 0.41 ×10⁻⁶ cm/s | recovery [26]: 54% | MRT [27]: 5.37 h | Papp B→A [28]: 17.1 ×10⁻⁶ cm/s | Cmax [29]: 14.9 ng/mL | Tmax [30]: 8 h
SMILES: CC(=O)O[C@H]1C(=O)[C@@]2(C)[C@H]([C@H](OC(=O)c3ccccc3)[C@]3(O)C[C@H](OC(=O)[C@H](O)[C@@H](NC(=O)c4ccccc4)c4ccccc4)C(C)=C1C3(C)C)[C@]1(OC(C)=O)CO[C@@H]1C[C@@H]2O [PACLITAXEL]
